# Laboratory results taken from patent publication US20250223559A1, “AXIOLOID: A STEM CELL-BASED MODEL OF HUMAN AXIAL DEVELOPMENT” (KYOTO UNIVERSITY, priority 2022, published 2025).
# What was measured:
# human Axioloids = experiment: scRNA-seq analysis of Axioloids (clusters, marker genes, differentially expressed genes); assay type: cell-based
# Procedure: Axioloids were collected into wells of a 96-well plate and washed three times by transferring to another well filled with 0.1% BSA (SIGMA) in HBSS(-). Axioloids of the desired stage and number were then transferred to another well filled with 100 μl of enzyme P solution of the Neural Tissue Dissociation Kit (P) (Miltenyi Biotec) and incubated at 37° C. for 10 minutes. After adding 100 μl of 0.1% BSA in HBSS(-) Axioloids were dissociated by pipetting with an uncut P200 tip 20 times. The dissociated cells were filtered through Flowmi Cell Strainers with […] porosity (Merck) into a BSA-coated 2 ml tube (Eppendorf). Cells were washed twice in 1% BSA in HBSS(-) with centrifugation steps at 400×g for 6 minutes at room temperature. Cells were then resuspended in 1% BSA in HBSS(-) using a BSA-coated uncut-P200 tip and the concentration of the cell suspension was determined with hemocytometer. The cell suspension was subjected to library preparation using Chromium Next GEM Single Cell 3' Kit v3.1 (10× Genomics), aiming for a target cell recovery of 5000-10000. Library preparation was preformed following the instructions provided by the manufacturer 10X Genomics (CG000315 Rev B). The libraries were sequenced with NovaSeq 6000 Sequencing System (Illumina) using NovaSeq 6000 SP Reagent Kit v1.5 (100 Cycles) (Illumina, #20028401) and NovaSeq 6000 S1 Reagent Kit v1.5 (100 Cycles) (Illumina, #20028319) with the paired-end mode as described in the instructions by 10X Genomics (CG000315 Rev B). scRNA-seq data were first mapped to the human reference genome (hg38) to make matrices of UMI count for each gene and each cell using Cell Ranger (10X Genomics, version 6.0.1). Putative doublet clusters were removed using Scrublet (version 0.2.3) with the expected_doublet_rate set as 0.06^64. Then, the count data were imported into the Suerat package (version 4.0.3)^65 for the downstream analysis. […] The cell cycle scores and cell cycle phases were then determined as described before^66. […]
# [1] = tested on: segmentation clock gene HES7; experiment: HES7:Luciferase reporter oscillation of the segmentation clock in Axioloids; assay type: cell-based, human; conditions: RA, RAL or ROL, with or without MG
# Procedure: Bioluminescence live-cell imaging of HES7-reporter (201B7Luc) iPSC-derived human Axioloids (201B7Luc) was performed and signal was quantified as previously described^55,56 Briefly, one day before imaging glass-bottom 96-well plates (Iwaki) were coated with 50 μl of 1.5% PVA (Nacalai), the PVA solution was hereby aspirated and the plates dried on top of a clean bench overnight at room temperature. Prior to imaging, Axioloids were set onto coated glass-bottom 96-well plates with 80 μl of AK02N-C medium containing […] D-Luciferin and 10% Matrigel. Small molecule agonists and antagonists of signaling pathways were added according to the experimental setup. Bioluminescence signals of Axioloids induced from the HES7-reporter cell line were recorded on IX83 (Olympus) equipped with iXon EMCCD camera (Andor) cultured in a stage top incubator (Tokai Hit). Signal was acquired with 2×2 binning and 1 min exposure. Cosmic rays were removed from the raw images by applying spike noise filter, then smoothed by median filter. Temporal fluctuation of signal baseline was corrected by background subtraction. Kymograph was generated by averaging luminescence intensity values along the lateral axis of Axioloids and resulted values were aligned in temporal order.
# Periodicity of HES7 oscillation was quantified from time-series luminescence intensity data obtained from either live imaging or Kronos HT (Atto) measurements using HES7 reporter-derived Axioloids. For Kronos HT based oscillation measurements, Axioloids were transferred at 72 h (48 h after aggregation) into 24-well film-bottom plates (Eppendorf) covered in 400 μl of embedding medium (+/−MG) supplemented with D-Luciferin (100 μM) (bioWORLD). Axioloid containing culture plates were cultured at 37° C. and 5% CO2. Oscillations were measured for 48 hours and each well was measured for 10 seconds with 8 min intervals. Intensity values were processed using Matlab. Temporal trend was obtained by subtracting moving average (window size of 10 h), and the detrended signal was smoothed by Savitzky-Golay filter (window size of 3 h). Instantaneous oscillation phase was calculated by applying Hilbert transform, then peak detection was performed on cosine values of instantaneous oscillation phase. Peak-to-peak period was then quantified on each n-th oscillation.
smiles,measurement,setting,value
"CC1=C(/C=C/C(C)=C/C=C/C(C)=C/C=O)C(C)(C)CCC1 [RAL, all trans-Retinal]",segregation of SM and TB clusters,"human Axioloids; MG with vs without RA or RAL, 96 h and 120 h",clear segregation of the SM and TB clusters
same,"expression of TCF15, MEOX1, PAX3, PBX1, ZIC3, NR2F1, MEIS2","human Axioloids; MG-embedded, exposed to RAL/RA",up-regulated
same,"MG-associated DEGs in SM (EMT genes, SFRP1, DKK1, FST, ID2, TFC15, PAX3)",human Axioloids; addition of RA or RAL to MG,attenuated
same,oscillatory activity including periodicity of HES7,[1],largely no effect
